# Assays:
# [1] = tested on: Sandhoff (Hexb−/−) mice; assay: Juvenile Sandhoff (Hexb−/−) mice treated with compound 3h; format: in vivo, mouse; conditions: for Neutral Lipids GA2: p-15 Sandhoff mice; for Total Siatic Acid: Hexb −/− p-15, 60 mg/kg/day i.p. p-9 to p-15, resorcinol assay
# Procedure: The SV/129 Hexb−/− mice were obtained from the NIH. The mice were derived by the disruption of the murine Hexb gene and transferring this gene into the mouse genome via homologous recombination and embryonic stem cell technology as previously described (38). The genotypes of mice were determined by PCR as previously described. Mice were propagated and housed in plastic cages with filter tops containing Sani-Chip bedding (P.J. Murphy Forest Products Corp.; Montville, N.J.). Food and water were provided ad libitum. Nursing females were provided with cotton nesting pads for the duration of the experiment.
# The solution was dried under nitrogen, resuspended in 3.6 ml distilled H2O, then dissolved at 42° C. in a shaking water bath. The solution was neutralized by adding 400 μl of 10× phosphate buffer saline (PBS), and was sterilized following passage through an Acrodisc 0.2 μm syringe filter (Sigma, St. Louis, Mo.). […] The mice were weighed daily and received intraperitoneal (i.p.) injections equivalent to 60 mg/kg from postnatal day 9 (p-9) to postnatal day 15 (p-15). Control mice received i.p. injections of PBS. Injections were performed using a Hamilton syringe (26 gauge, point style 2, 0.5 inch needle) (Hamilton, Reno, Nev.), and volumes ranged from 50 ul to 100 μl/mouse. The mice were sacrificed 4 hrs after the final injection on p-15. Cerebrum, cerebellum, and liver were dissected and frozen on dry ice to determine wet weight. The tissues then were homogenized in 3.0 ml distilled H2O, and 150 μl of each homogenate was set aside for analysis of protein and lysosomal enzyme activities. The remaining homogenate was frozen at −80° C., lyophilized, then weighed before lipid extraction. […]
# Lipid extraction of lyophilized tissue was performed overnight in 5 ml CHCl3:CH3OH 1:1 (v/v). Samples were spun down at 2500 rpm for 20 min, and the supernatant was collected. Pellets were washed in 2 ml CHCl3:CH3OH 1:1 (v/v), spun down again, and the total 7 ml of supernatant was brought up to a final volume of 19.6 ml at a ratio of 30:60:8 CHCl3:CH3OH:dH2O (v/v/v).
# Neutral lipids and cholesterol were separated from acidic lipids and gangliosides by ion exchange chromatography as we described (32, 28, 24). The total lipid extract, suspended in CHCl3:CH3OH:dH2O, 30:60:8 by volume (solvent A), was applied to a DEAE Sephadex column (1.2 mL bed volume) that had been equilibrated prior with solvent A (28). The column was washed twice with 20 mL solvent A and the entire neutral lipid fraction, consisting of the initial eluent plus washes, was collected. This fraction contained cholesterol, phosphatidylcholine, phosphatidylethanolamine and plasmalogens, sphingomyelin, and neutral GSLs to include cerebrosides and asialo-GM2 (GA2). Next, acidic lipids were eluted from the column with 35 mL CHCl3:CH3OH:0.8 M Na acetate, 30:60:8 by volume. Gangliosides were separated from acidic phospholipids by Folch partitioning, base treated, and desalted as previously described (32, 28). Neutral lipids were dried by rotary evaporation and resuspended in 10 mL CHCl3:CH3OH (2:1; v/v). A 4 mL aliquot was evaporated under nitrogen, base treated with 1 N NaOH, and Folch partitioned. The Folch lower phase containing GA2 was evaporated under nitrogen and resuspended in 4 mL CHCl3:CH3OH (2:1; v/v).
# Total ganglioside content was quantified before and after desalting using the resorcinol assay as previously described (28). Sialic acid values were fit to a standard curve using n-acetylneuraminic acid as a standard.
# All lipids were analyzed qualitatively by high-performance thin-layer chromatography (HPTLC) according to previously described methods (28, 24, 25). Lipids were spotted on 10 cm×20 cm Silica gel 60 HPTLC plates (E. Merck, Darmstadt, Germany) using a Camag Linomat III auto-TLC spotter (Camag Scientific, Inc., Wilmington, N.C.). […]
# [2] = drug distribution studies; cited from earlier work
# [3] = Hexb −/− mice p-15, 60 mg/kg/day i.p. p-9 to p-15, mean ± SEM
# [4] = cerebellum, Hexb −/− p-15, 60 mg/kg/day
# [5] = cerebrum, Hexb −/− p-15, 60 mg/kg/day
# [6] = liver, Hexb −/− p-15, 60 mg/kg/day
compound,measurement,setting,value
"O=C(CC1Cc2ccccc2C1)N[C@H](CN1CCCC1)[C@H](O)c1ccc2c(c1)OCCO2 [Compound 3h, 2-(2,3-dihydro-1H-inden-2-yl)-N-((1R,2R)-1-(2,3-dihydrobenzo[b][1,4]dioxin-6-yl)-1-hydroxy-3-(pyrrolidin-1-yl)propan-2-yl)acetamide]",adverse effects on body weight over the treatment period,[1]; 60 mg/kg/day p-9 to p-15,no adverse effects
same,Neutral Lipids GA2,[1]; Cerebellum,0.55 ± 0.01 mg/100 mg dry weight
same,Neutral Lipids GA2,[1]; Cerebrum,0.51 ± 0.01 mg/100 mg dry weight
same,Body Weight,"[1]; Hexb −/− mice p-15, 60 mg/kg/day i.p. p-9 to p-15 (oxalate), mean ± SEM",9.0 ± 0.5 g
same,Water Content Cerebellum,[1]; [3],83.88 ± 0.01%
same,Water Content Cerebrum,[1]; [3],84.45 ± 0.01%
same,Wet Weight Cerebellum,[1]; [3],87.7 ± 7.7 mg
same,Wet Weight Cerebrum,[1]; [3],271.0 ± 2.3 mg
same,Neutral Lipids GA2,[1]; Liver,1.10 ± 0.05 mg/100 mg dry weight
same,reduction of GM2 content,[1]; cerebellum of Hexb −/− mice,53%
same,total sialic content lower than in control Hexb −/− mice,"[1]; cerebellum, 60 mg/kg/day p-9 to p-15",14%
same,G1a Concentration,[1]; [4],76.6 ± 3.7 micrograms of sialic acid per 100 mg dry weight
same,G1a Percent,[1]; [4],24.1 ± 0.3%
same,GD1b Concentration,[1]; [4],42.1 ± 2.0 micrograms of sialic acid per 100 mg dry weight
same,GD1b Percent,[1]; [4],24.1 ± 0.3%
same,GD3 Concentration,[1]; [4],9.8 ± 1.2 micrograms of sialic acid per 100 mg dry weight
same,GD3 Percent,[1]; [4],4.3 ± 0.2%
same,GM1 Concentration,[1]; [4],17.4 ± 1.4 micrograms of sialic acid per 100 mg dry weight
same,GM1 Percent,[1]; [4],5.5 ± 0.4%
same,GM2 Concentration,[1]; [4],9.8 ± 1.2 micrograms of sialic acid per 100 mg dry weight
same,GM2 Percent,[1]; [4],3.1 ± 0.1%
same,GQ1b Concentration,[1]; [4],41.3 ± 3.8 micrograms of sialic acid per 100 mg dry weight
same,GQ1b Percent,[1]; [4],12.9 ± 0.1%
same,GT1a/LD1 Concentration,[1]; [4],22.9 ± 1.0 micrograms of sialic acid per 100 mg dry weight
same,GT1a/LD1 Percent,[1]; [4],7.2 ± 0.1%
same,GT1b Concentration,[1]; [4],94.4 ± 3.9 micrograms of sialic acid per 100 mg dry weight
same,GT1b Percent,[1]; [4],29.7 ± 0.8%
same,Total Siatic Acid,"[1]; cerebellum, mean ± SEM",318 ± 15
same,reduction of GM2 content,[1]; cerebrum of Hexb −/− mice,52%
same,total sialic content lower than in control Hexb −/− mice,"[1]; cerebrum, 60 mg/kg/day p-9 to p-15",11%
same,G1a Concentration,[1]; [5],187.4 ± 5.2 micrograms of sialic acid per 100 mg dry weight
same,G1a Percent,[1]; [5],43.4 ± 0.3%
same,GD1b Concentration,[1]; [5],31.7 ± 0.5 micrograms of sialic acid per 100 mg dry weight
same,GD1b Percent,[1]; [5],7.3 ± 0.1%
same,GM1 Concentration,[1]; [5],26.4 ± 1.6 micrograms of sialic acid per 100 mg dry weight
same,GM1 Percent,[1]; [5],6.1 ± 0.2%
same,GM2 Concentration,[1]; [5],87.7 ± 7.7 micrograms of sialic acid per 100 mg dry weight
same,GM2 Percent,[1]; [5],2.8 ± 0.1%
same,GQ1b Concentration,[1]; [5],33.3 ± 0.7 micrograms of sialic acid per 100 mg dry weight
same,GQ1b Percent,[1]; [5],7.7 ± 0.1%
same,GT1a/LD1 Concentration,[1]; [5],20.8 ± 0.7 micrograms of sialic acid per 100 mg dry weight
same,GT1a/LD1 Percent,[1]; [5],4.8 ± 0.3%
same,GT1b Concentration,[1]; [5],119.8 ± 3.3 micrograms of sialic acid per 100 mg dry weight
same,GT1b Percent,[1]; [5],27.8 ± 0.1%
same,Total Siatic Acid,"[1]; cerebrum, mean ± SEM",432 ± 11
same,body weight versus control Hexb −/− mice,[1]; in words,slightly higher
same,reduction of NGNA-GM2 content,"[1]; liver, versus PBS-treated Hexb −/− controls",45%
same,total sialic content lower than in control Hexb −/− mice,"[1]; liver, 60 mg/kg/day p-9 to p-15",38%
same,G1a Concentration,[1]; [6],12.2 ± 0.3 micrograms of sialic acid per 100 mg dry weight
same,G1a Percent,[1]; [6],17.6 ± 1.1%
same,GM1 Concentration,[1]; [6],15.4 ± 2.1 micrograms of sialic acid per 100 mg dry weight
same,GM1 Percent,[1]; [6],21.9 ± 1.5%
same,GM2 Concentration,[1]; [6],42.1 ± 2.6 micrograms of sialic acid per 100 mg dry weight
same,GM2 Percent,[1]; [6],60.5 ± 1.3%
same,Total Siatic Acid,"[1]; liver, mean ± SEM",70 ± 5
same,reduction of GA2 in Hexb −/− liver,[1]; p=0.06,not significant
"CCCCCCCC(=O)N[C@H](CN1CCCC1)[C@H](O)c1ccc2c(c1)OCCO2 [Compound 3a, N-((1R,2R)-1-(2,3-dihydrobenzo-[b][1,4]dioxin-6-yl)-1-hydroxy-3-(pyrrolidin-1-yl)propan-2-yl)octanamide, reference compound]",transport across the blood brain barrier,[2],not transported across the blood brain barrier

# — US8961959B2, “Glucosylceramide synthase inhibitors and therapeutic methods using the same” (The Regents of the University of Michigan, priority 2011, dated 2015)
